Measured values taken from patent US8486965B2, “Pyrrolo[2,3-b]pyridine derivative and use thereof for treatment of cancer” (Takeda Pharmaceutical Company Limited, priority 2009, dated 2013).

Legend:
[1] = system: mouse medulloblastoma; experiment: In vivo anti-tumor test, mouse medulloblastoma allogeneic transplantation model; conditions: 1 mg/kg, orally once a day for 2 weeks; subcutaneous medulloblastoma in nude mouse; at the end of the test; p < 0.025 (Dunnett's test)
Procedure: According to the description in Sasaki, K. et al., (2006) Cancer Res. 66: 4215-4222, an anti-tumor effect of a compound was evaluated using a mouse medulloblastoma allogeneic transplantation model. To be precise, Patched 1 gene mutant mouse (lineage name: Ptch1tm1Mps/J) was purchased from The Jackson Laboratory and p53 gene mutant mouse (lineage name: P53N4-M, Nomenclature: B6.129-Trp53tm/BrdN4) was purchased from Taconic, and a mouse of Patched 1(+/−), p53(−/−) phenotype was prepared by mating. […]
An anti-tumor test was performed using a tumor passaged by subcutaneous transplantation. […] The tumor diameter after transplantation was measured and, when the tumor size reached 150-250 mm^3, the anti-tumor test was started using 5 mice per group.
The test compound was prepared to achieve a dose of 1 mg/kg with a 0.5% methylcellulose (Shin-Etsu Chemical Co., Ltd., Cat. No. SM-100) suspension, and orally administered once a day for 2 weeks. The tumor size was calculated based on the longer diameter and shorter diameter of the tumor measured with an electron vernier caliper. After the start of the test, the tumor size was measured every 2 or 3 days and the growth rate of the tumor size was calculated. […]

[2] = system: Hedgehog signal transduction system (Smo); experiment: Gli reporter luciferase assay in NIH-3T3/Gli reporter cells stimulated with mouse Shh-N end fragment; type: cell-based; conditions: NIH3T3; 1 μM compound; NIH-3T3/Gli reporter cells with mouse Shh-N end fragment culture supernatant, 48 hr; luciferase activity, control without compound as 100; read-out: inhibition rate (%) at 1 μM
Outline: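 NIH-3T3 cells stably carrying a luciferase reporter driven by 8× Gli-binding sites and chicken δ-crystalline promoter, plated at 1×10^4 cells/well and cultured overnight at 37° C in 10% FBS D-MEM. Compound added with recombinant mouse Shh-N fragment (aa 1–198, HEK293-expressed) to induce signaling; luciferase read-out.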

Row | Compound | T/C (%) (growth rate of the tumor size) [1] | inhibition at 1 µM [2]
1 | CCc1nc2c(cc1NC(=O)c1ccccc1)c(OC(C)C)c(C(=O)NC1CCN(C(=O)CO)CC1)n2C [Example 46, 6-ethyl-N-[1-(hydroxyacetyl)piperidin-4-yl]-1-methyl-3-(1-methylethoxy)-5-[(phenylcarbonyl)amino]-1H-pyrrolo[2,3-b]pyridine-2-carboxamide] | 51% | 98%
2 | CCc1nc2c(cc1NC(=O)c1sccc1Cl)c(OC(C)C)c(C(=O)NC1CCN(C(=O)CO)CC1)n2C [Example 63, 5-{[(3-chlorothiophen-2-yl)carbonyl]amino}-6-ethyl-N-[1-(hydroxyacetyl)piperidin-4-yl]-1-methyl-3-(1-methylethoxy)-1H-pyrrolo[2,3-b]pyridine-2-carboxamide] |  | 96%
3 | CCc1cc2c(nc1NC(=O)c1ccccc1)c(OCC(F)(F)F)c(C(=O)NC1CCN(C(=O)CO)CC1)n2C [Example 127, 6-ethyl-N-[1-(hydroxyacetyl)piperidin-4-yl]-1-methyl-5-[(phenylcarbonyl)amino]-3-(2,2,2-trifluoroethoxy)-1H-pyrrolo[3,2-b]pyridine-2-carboxamide] |  | 96%
4 | Cc1cc2sc(C(=O)NC3CCN(C(=O)CO)CC3)c(OCC(F)(F)F)c2cc1NC(=O)c1ccccc1 [Example 68, N-[1-(hydroxyacetyl)piperidin-4-yl]-6-methyl-5-[(phenylcarbonyl)amino]-3-(2,2,2-trifluoroethoxy)-1-benzothiophene-2-carboxamide] |  | 96%
